Assay results reported in article PMC6943736, “Bio-Guided Isolation of Prospective Bioactive Constituents from Roots of Clausena indica (Dalzell) Oliv” (Molecules, 2019).

Molecular target: tyrosinase
Assay: enzyme assay with L-tyrosine substrate, […] nm
Format: biochemical

## COc1ccc2c(c1)[nH]c1cc(OC)c(C(=O)O)cc12 [L3, Clausine K]
  Tyrosinase Inhibition IC50: 179.5 µg/mL
